Laboratory results reported in ChEMBL document CHEMBL1152554, “Synthesis and pharmacological evaluation of 6-naltrexamine analogs for alcohol cessation” (Bioorg Med Chem, 2009).
The source made the active and inactive calls. The calls are words filed in the database; no cut-off is given here.

Tests used:
[1] = mouse, microsomes
Liver microsomes = details: human
Nociceptin receptor [2] = target: T1, Nociceptin receptor (Homo sapiens, UniProt P41146); test: biochemical
in vitro = details: mouse, liver microsomes
[3] = Ratio of drug level in brain to plasma in Wistar rat at 400 ug/kg, po after […]; type: ADME, organism-based; details: 0.4 mg/kg, read-out: BPR
Nociceptin receptor [4] = target: T1, Nociceptin receptor; test: biochemical; remark: listed apart in the source
Nociceptin receptor [5] = target: T1, Nociceptin receptor; test: Activity at NOP expressed in HEK293 cells assessed as stimulation of [35S]GTPgammaS binding relative to basal level; type: functional, cell-based
Rattus norvegicus = test: Inhibition of saccharin intake in sc dosed Wistar rat by saccharin-self administration test; type: functional, organism-based
Nociceptin receptor [6] = target: T1, Nociceptin receptor; test: biochemical; remark: listed apart in the source

T1 sequence (P41146 whole entry): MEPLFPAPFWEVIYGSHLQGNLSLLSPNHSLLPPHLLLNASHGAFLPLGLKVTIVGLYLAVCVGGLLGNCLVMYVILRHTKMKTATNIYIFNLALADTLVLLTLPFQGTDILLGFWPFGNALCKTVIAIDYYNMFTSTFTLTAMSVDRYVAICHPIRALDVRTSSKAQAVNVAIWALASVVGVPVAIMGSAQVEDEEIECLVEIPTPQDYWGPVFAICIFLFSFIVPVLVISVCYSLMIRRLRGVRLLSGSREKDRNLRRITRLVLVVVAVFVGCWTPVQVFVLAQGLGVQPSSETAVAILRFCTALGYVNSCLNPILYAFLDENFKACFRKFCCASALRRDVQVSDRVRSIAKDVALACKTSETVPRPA

For `Cc1ccc(C(=O)N[C@@H]2CC[C@@]3(O)[C@H]4Cc5ccc(O)c6c5[C@@]3(CCN4CC3CC3)[C@H]2O6)cc1.O=C(O)C(=O)O`, the Stability [1] was “Stable” and the Stability (Liver microsomes) was “Stable”.

In the case of `O=C(N[C@@H]1CC[C@@]2(O)[C@H]3Cc4ccc(O)c5c4[C@@]2(CCN3CC2CC2)[C@H]1O5)c1ccc(Cl)cc1`, the EC50 (Nociceptin receptor [2]) is reported as greater than 10 µM.

With `C=C1CC[C@@]2(O)[C@H]3Cc4ccc(O)c5c4[C@@]2(CCN3CC2CC2)[C@H]1O5` the half-life (in vitro) was 20 min.

For `O=C(O)C(=O)O.O=[14C](N[C@@H]1CC[C@@]2(O)[C@H]3Cc4ccc(O)c5c4[C@@]2(CCN3CC2CC2)[C@H]1O5)c1ccc(Br)cc1`, the Kp at […] [3] was 2.3.

With `O=C(N[C@@H]1CC[C@@]2(O)[C@H]3Cc4ccc(O)c5c4[C@@]2(CCN3CC2CC2)[C@H]1O5)c1ccc(Cl)c(Cl)c1.O=C(O)C(=O)O` the Stability [1] was “Stable”, the EC50 (Nociceptin receptor [2]) was greater than 10 µM and the EC50 (Nociceptin receptor [4]) was 0.0001 µM.

With `O=C(N[C@@H]1CC[C@@]2(O)[C@H]3Cc4ccc(O)c5c4[C@@]2(CCN3CC2CC2)[C@H]1O5)c1ccc(C(F)(F)F)cc1.O=C(O)C(=O)O` the Stability [1] was “Stable” and the Stability (Liver microsomes) was “Stable”.

Work on `Oc1ccc2c3c1O[C@H]1c4[nH]c5ccccc5c4C[C@@]4(O)[C@@H](C2)N(CC2CC2)CC[C@]314` yielded an Emax (Nociceptin receptor [5]) of 109%.

In the case of `CC(C)(C)c1ccc(C(=O)N[C@@H]2CC[C@@]3(O)[C@H]4Cc5ccc(O)c6c5[C@@]3(CCN4CC3CC3)[C@H]2O6)cc1.O=C(O)C(=O)O`, the Stability [1] is reported as “Stable”.

With `O=C(N[C@@H]1CC[C@@]2(O)[C@H]3Cc4ccc(O)c5c4[C@@]2(CCN3CC2CC2)[C@H]1O5)c1ccc(Br)cc1.O=C(O)C(=O)O` the inhibition (Rattus norvegicus) was “Active”, the Stability (Liver microsomes) was “Stable” and the EC50 (Nociceptin receptor [2]) was greater than 10 µM. It also gave a Ki (Nociceptin receptor [6]) greater than 10 µM.
